Laboratory results published in patent US6531471B2, “Morpholinone and morpholine derivatives and uses thereof” (Synaptic Pharmaceutical Corporation, priority 1998, dated 2003).
Where a name gives a salt, the structure may show the parent alone.

Experiments:
human α1d receptor = molecular target: T1, human α1d receptor (Homo sapiens, UniProt P25100); test: Radioligand binding assay at cloned human α1d adrenergic receptor; details: [3H]prazosin 0.5 nM, membrane preparations of transfected LM(tk−) cells, read-out: hα1d Ki
T1 construct: host or cells: LM(tk−) cells, membrane preparation
T1 sequence (P25100 1-572): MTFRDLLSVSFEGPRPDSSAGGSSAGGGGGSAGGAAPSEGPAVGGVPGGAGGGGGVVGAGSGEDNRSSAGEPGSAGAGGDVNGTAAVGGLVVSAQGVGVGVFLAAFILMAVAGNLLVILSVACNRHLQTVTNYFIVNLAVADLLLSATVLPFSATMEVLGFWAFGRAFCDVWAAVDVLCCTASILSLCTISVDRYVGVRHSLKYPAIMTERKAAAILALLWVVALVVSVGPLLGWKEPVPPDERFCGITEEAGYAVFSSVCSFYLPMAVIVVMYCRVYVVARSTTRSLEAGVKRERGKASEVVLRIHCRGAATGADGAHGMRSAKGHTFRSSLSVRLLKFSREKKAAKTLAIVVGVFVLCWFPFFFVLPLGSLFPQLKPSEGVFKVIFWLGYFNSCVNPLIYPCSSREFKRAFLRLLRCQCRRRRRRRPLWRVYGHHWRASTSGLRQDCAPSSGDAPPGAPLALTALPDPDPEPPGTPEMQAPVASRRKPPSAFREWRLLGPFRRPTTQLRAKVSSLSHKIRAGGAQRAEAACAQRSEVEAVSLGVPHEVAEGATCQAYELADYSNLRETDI
Description: (§1) These cell lines were prepared by transfecting the cloned cDNA or cloned genomic DNA or constructs containing both genomic DNA and cDNA encoding the human α-adrenergic receptors as follows:
The cells were grown, in a controlled environment (37° C., 5% CO2), as monolayers in Dulbecco's modified Eagle's Medium (GIBCO, Grand Island, N.Y.) containing 25 mM glucose and supplemented with 10% bovine calf serum, 100 units/ml penicillin g, and 100 μg/ml streptomycin sulfate.
(§2) Radioligand Binding Assays for α1 receptors: Transfected cells from culture flasks were scraped into 5 ml of 5 mM Tris-HCl, 5 mM EDTA, pH 7.5, and lysed by sonication. The cell lysates were centrifuged at 1000 rpm for 5 min at 4° C., and the supernatant was centrifuged at 30,000×g for 20 min at 4° C. The pellet was suspended in 50 mM Tris-HCl, 1 mM MgCl2, and 0.1% ascorbic acid at pH 7.5. Binding of the α1 antagonist [^3H]prazosin (0.5 nM, specific activity 76.2 Ci/mmol) to membrane preparations of LM(tk−) cells was done in a final volume of 0.25 ml and incubated at 37° C. for 20 min. Nonspecific binding was determined in the presence of […] phentolamine. The reaction was stopped by filtration through GF/B filters using a cell harvester.

human α1b receptor = molecular target: T2, human α1b receptor (Homo sapiens, UniProt P35368); test: Radioligand binding assay at cloned human α1b adrenergic receptor; details: [3H]prazosin 0.5 nM, membrane preparations of transfected LM(tk−) cells, read-out: hα1b Ki
T2 construct: host or cells: LM(tk−) cells, membrane preparation
T2 sequence (P35368 1-520): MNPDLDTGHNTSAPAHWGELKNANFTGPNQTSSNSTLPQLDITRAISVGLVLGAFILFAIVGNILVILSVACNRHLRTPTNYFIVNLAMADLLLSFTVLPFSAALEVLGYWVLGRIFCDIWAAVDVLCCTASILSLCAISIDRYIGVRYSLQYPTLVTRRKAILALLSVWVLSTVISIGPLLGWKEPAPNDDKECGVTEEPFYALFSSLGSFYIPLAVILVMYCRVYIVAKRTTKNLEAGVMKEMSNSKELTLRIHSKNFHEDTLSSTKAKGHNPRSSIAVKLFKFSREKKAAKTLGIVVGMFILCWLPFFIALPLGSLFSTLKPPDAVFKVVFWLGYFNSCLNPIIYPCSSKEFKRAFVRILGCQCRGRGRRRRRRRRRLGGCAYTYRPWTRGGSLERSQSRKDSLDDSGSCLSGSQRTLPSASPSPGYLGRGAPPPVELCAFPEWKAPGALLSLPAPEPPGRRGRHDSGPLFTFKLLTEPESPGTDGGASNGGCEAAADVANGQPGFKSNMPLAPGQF
Description: as §1
The construct involved ligating the full-length containing EcoRI brainstem cDNA fragment from λ ZapII into the expression vector. Stable cell lines were selected as described above.
as §2

human α1a receptor = molecular target: T3, human α1a receptor (Homo sapiens, UniProt P35348); test: Radioligand binding assay at cloned human α1a adrenergic receptor; details: [3H]prazosin 0.5 nM, membrane preparations of transfected LM(tk−) cells, read-out: hα1a Ki
T3 construct: host or cells: LM(tk−) cells, membrane preparation
T3 sequence (P35348 1-466): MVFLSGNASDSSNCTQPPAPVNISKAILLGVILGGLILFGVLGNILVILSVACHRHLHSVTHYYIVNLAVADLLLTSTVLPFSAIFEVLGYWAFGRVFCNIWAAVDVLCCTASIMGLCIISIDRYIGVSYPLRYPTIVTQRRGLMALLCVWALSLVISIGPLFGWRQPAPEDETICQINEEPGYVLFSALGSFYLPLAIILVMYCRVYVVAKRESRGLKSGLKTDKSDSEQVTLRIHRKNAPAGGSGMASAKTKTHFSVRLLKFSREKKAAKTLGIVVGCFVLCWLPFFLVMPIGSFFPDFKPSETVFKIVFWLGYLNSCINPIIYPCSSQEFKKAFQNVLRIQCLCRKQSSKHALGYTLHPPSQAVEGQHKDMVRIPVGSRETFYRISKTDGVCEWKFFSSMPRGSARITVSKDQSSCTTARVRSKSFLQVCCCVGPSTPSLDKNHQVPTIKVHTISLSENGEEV
Description: as §1
The construct involved ligating three partial overlapping fragments: a 5′ 0.6 kb HincII genomic clone, a central 1.8 EcoRI hippocampal cDNA clone, and a 3′ 0.6Kb PstI genomic clone. The hippocampal cDNA fragment overlaps with the 5′ and 3′ genomic clones so that the HincII and PstI sites at the 5′ and 3′ ends of the cDNA clone, respectively, were utilized for ligation. This full-length clone was cloned into the KpnI site of the expression vector, using the 5′ and 3′ KpnI sites of the fragment, derived from vector (i.e., pBluescript) and 3′-untranslated sequences, respectively. Stable cell lines were selected as described above.
as §2

SMILES	melting point [°C]	Ki (human α1d receptor) [nM]	Ki (human α1b receptor) [nM]	Ki (human α1a receptor) [nM]
COc1ccc(F)cc1C1(c2ccccc2)CCN(CCCNC(=O)N2C(=O)COCC2c2ccc(F)c(F)c2)CC1 (single isomer, unassigned; (+)) (as salt: HCl) [Compound 1, (+)-3-(3,4-Difluorophenyl)-5-oxo-morpholine-4-carboxylic acid-{3-[4-(5-fluoro-2-methoxyphenyl)-4-phenyl-piperidin-1-yl}-propyl}-amide]	110 to 113	–	–	–
COc1ccc(F)cc1C1(c2ccccc2)CCN(CCCNC(=O)N2C(=O)COCC2c2ccc(F)c(F)c2)CC1 (single isomer, unassigned; (+)) [Compound 1, (+)-3-(3,4-Difluorophenyl)-5-oxo-morpholine-4-carboxylic acid-{3-[4-(5-fluoro-2-methoxyphenyl)-4-phenyl-piperidin-1-yl}-propyl}-amide]	–	307	244	1.6
NC(=O)c1ccccc1N1CCN(CCCNC(=O)N2C(=O)COCC2c2ccc(F)c(F)c2)CC1 (centres unmarked) [Compound 4, 3-(3,4-Difluoro-phenyl)-5-oxo-morpholine-4-carboxylic acid-{3-[4-(2-carboxamido)-phenyl-piperiazin-1-yl]-propyl}-amide]	–	3160	3630	32
N#CC1(c2ccccc2)CCC(NCCNC(=O)N2C(=O)COCC2c2ccc(F)c(F)c2)CC1 (centres unmarked) [Compound 7]	–	204	246	12.6

The remaining lines, values ahead:

melting point [°C]	Ki (human α1d receptor) [nM]	Ki (human α1b receptor) [nM]	Ki (human α1a receptor) [nM]	SMILES
191 to 194	4200	1460	2.6	CC1OCC(=O)N(C(=O)NCCCN2CCC(C#N)(c3ccccc3)CC2)C1c1ccc(F)c(F)c1 (single isomer, unassigned; (+)) [Compound 14]
–	580	464	3.8	CC1(C)OCC(=O)N(C(=O)NCCCN2CCC(c3ccccn3)CC2)C1c1ccc(F)c(F)c1 (centres unmarked) [Compound 17, N-4-[3-{4-(2-pyridyl}piperidino)propyl]-3-(3,4-difluorophenyl)-2,2-dimethyl-5-oxo-4-morpholinecarboxamide hydrochloride]
